Experimental findings from patent US20260217708A1, “FUSED BENZAZEPINE DERIVATIVES FOR USE IN THE TREATMENT OF CANCER AND EPILEPSY” (UCB BIOPHARMA SRL, priority 2023, published 2026) are described below.

For assay [1], the target named is T1, system Xc^− (Homo sapiens, UniProt Q9UPY5).
T1 sequence (Q9UPY5 1-501): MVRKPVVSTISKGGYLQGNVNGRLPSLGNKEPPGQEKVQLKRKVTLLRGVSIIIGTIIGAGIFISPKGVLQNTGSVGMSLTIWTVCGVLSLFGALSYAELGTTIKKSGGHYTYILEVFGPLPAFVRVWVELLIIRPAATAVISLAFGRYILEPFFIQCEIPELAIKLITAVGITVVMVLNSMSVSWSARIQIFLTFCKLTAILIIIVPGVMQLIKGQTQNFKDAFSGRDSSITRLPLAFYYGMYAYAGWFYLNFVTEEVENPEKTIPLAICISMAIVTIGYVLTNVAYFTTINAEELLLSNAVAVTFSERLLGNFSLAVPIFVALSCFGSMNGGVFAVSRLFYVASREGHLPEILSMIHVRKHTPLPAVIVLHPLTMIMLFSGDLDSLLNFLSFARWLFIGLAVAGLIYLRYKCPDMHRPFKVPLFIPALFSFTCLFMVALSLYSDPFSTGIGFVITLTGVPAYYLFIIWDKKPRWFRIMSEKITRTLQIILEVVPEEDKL
T1 sequence (P08195 1-529 partner): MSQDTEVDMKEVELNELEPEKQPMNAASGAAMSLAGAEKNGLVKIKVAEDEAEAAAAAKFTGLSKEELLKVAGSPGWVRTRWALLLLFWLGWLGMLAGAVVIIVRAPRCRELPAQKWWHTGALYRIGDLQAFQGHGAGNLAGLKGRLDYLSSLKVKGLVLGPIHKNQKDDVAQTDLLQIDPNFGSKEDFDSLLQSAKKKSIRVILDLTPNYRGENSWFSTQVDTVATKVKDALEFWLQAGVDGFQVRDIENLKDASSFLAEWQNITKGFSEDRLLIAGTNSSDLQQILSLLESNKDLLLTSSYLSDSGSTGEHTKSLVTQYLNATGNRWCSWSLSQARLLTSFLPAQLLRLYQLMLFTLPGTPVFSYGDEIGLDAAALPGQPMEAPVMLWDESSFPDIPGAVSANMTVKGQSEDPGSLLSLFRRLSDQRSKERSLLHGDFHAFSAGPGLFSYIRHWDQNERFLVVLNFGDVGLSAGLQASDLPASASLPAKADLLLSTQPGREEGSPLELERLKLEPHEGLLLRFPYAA
The assay is described as follows: [^14C]L-Cystine uptake assay. It counts as cell-based. Further details: endogenous in cells; host or cells: H4 cells. Conditions: H4 cells, sodium-free HEPES buffer, 0.5 μM L-[14C]Cystine and 4.5 μM L-Cystine, 1 hour at 37° C.; read-out: pIC50 [^14C] L-Cystine uptake assay (converted). The procedure, abridged: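 H4 cells at 5×10^4 cells/well in sodium-free HEPES buffer were preincubated 15 min with compounds (1% DMSO). Uptake of 0.5 μM [14C]L-cystine plus 4.5 μM unlabelled L-cystine ran 1 hour at 37° C on scintillating plates. IC50 was set between 1% DMSO and 50 μM Erastin controls and expressed as pIC50.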

The target in assay [2] is T1, system Xc^−. The assay is described as follows: Cystine-induced glutamate release assay. The format is cell-based. Also on record: endogenous in cells; host or cells: H4 cells. Particulars: H4 cells, sodium-free HEPES buffer, 50 μM L-Cystine, 2 hours, Amplex Red glutamate readout; read-out: pIC50 Cystine-induced glutamate release assay (converted). The procedure, abridged:
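H4 cells in sodium-free HEPES buffer (pH 7.4), 2 days after plating; glutamate release induced with 50 μM L-cystine plus compound (1% DMSO), 2 h at 37 °C. Supernatant glutamate measured by Amplex Red fluorescence; IC50/pIC50 derived between 1% DMSO and 50 μM erastin controls.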

`CC1C(=O)N(CC(=O)Nc2ccc(Cl)c(F)c2)c2cc(N3CC4(CC4)C3)nc(F)c2-c2cccnc21` (single isomer, unassigned) [#267, 2-[5-(5-azaspiro[2.3]hexan-5-yl)-3-fluoro-10-methyl-9-oxo-4,8,12-triazatricyclo[9.4.0.0^2,7]pentadeca-1(15),2,4,6,11,13-hexaen-8-yl]-N-(4-chloro-3-fluoro-phenyl)acetamide]: the IC50 at system Xc^− [1] was 39.8 to 100 nM; on system Xc^− [2] it was 15.8 to 39.8 nM.

Regarding `CC1C(=O)N(CC(=O)Nc2ccc(C(F)F)cc2)c2cc(C#N)cc(Cl)c2-c2ccnn21` (centres unmarked) [#388, 2-(11-chloro-9-cyano-5-methyl-6-oxo-5H-pyrazolo[1,5-d][1,4]benzodiazepin-7-yl)-N-[4-(difluoromethyl)phenyl]acetamide], the IC50 at system Xc^− [1] and at system Xc^− [2] was 15.8 to 39.8 nM each time.

For `N#Cc1cc2c(cc1F)-c1cccnc1CC(=O)N2CC(=O)Nc1ccc(C(F)(F)F)cc1` [#69, 2-(9-cyano-10-fluoro-6-oxo-5H-pyrido[2,3-d][1]benzazepin-7-yl)-N-[4-(trifluoromethyl)-phenyl]acetamide], the IC50 at system Xc^− [1] is 15.8 to 39.8 nM; on system Xc^− [2], 39.8 to 100 nM.

Take `COCCN(C)c1cc2c(c(F)n1)-c1cccnc1C(C)C(=O)N2CC(=O)Nc1ccc(Cl)c(F)c1` (centres unmarked) [#264, N-(4-chloro-3-fluoro-phenyl)-2-[3-fluoro-5-[2-methoxyethyl(methyl)amino]-10-methyl-9-oxo-4,8,12-triazatricyclo[9.4.0.0^2,7]pentadeca-1(15),2(7),3,5,11,13-hexaen-8-yl]acetamide]: the IC50 at system Xc^− [1] was under 15.8 nM; on system Xc^− [2] it was 15.8 to 39.8 nM.

Regarding `COc1cc2c(c(F)n1)-c1cccnc1CC(=O)N2CC(=O)Nc1ccc(C(F)(F)F)cc1` [#124, 2-(3-fluoro-5-methoxy-9-oxo-4,8,12-triazatricyclo[9.4.0.0^2,7]pentadeca-1(11),2,4,6,12,14-hexaen-8-yl)-N-[4-(trifluoromethyl)phenyl]acetamide], the IC50 was 15.8 to 39.8 nM on system Xc^− [1] and 39.8 to 100 nM at system Xc^− [2].

Turning to `CC1C(=O)N(CC(=O)Nc2ccc(C(F)F)cc2)c2cc(N3CCC(F)(F)C3)nc(F)c2-c2cccnc21` (single isomer, unassigned) [#278, N-[4-(difluoromethyl)phenyl]-2-[5-(3,3-difluoropyrrolidin-1-yl)-3-fluoro-10-methyl-9-oxo-4,8,12-triazatricyclo[9.4.0.0^2,7]pentadeca-1(15),2,4,6,11,13-hexaen-8-yl]acetamide], the IC50 was 15.8 to 39.8 nM at system Xc^− [1] and 39.8 to 100 nM on system Xc^− [2].

For the compound `Cc1cc2c(c(F)n1)-c1c(F)cccc1CC(=O)N2CC(=O)Nc1ccc(C(F)(F)F)cc1` [#87, 2-(1,11-difluoro-3-methyl-6-oxo-7H-pyrido[4,3-d][3]benzazepin-5-yl)-N-[4-(trifluoromethyl)phenyl]acetamide], the values for the IC50 on system Xc^− [1] and on system Xc^− [2] were 39.8 to 100 nM and 100 to 501 nM, respectively.

Regarding `[2H]C([2H])([2H])C1C(=O)N(CC(=O)Nc2ccc(C(F)(F)F)cc2)c2cc(C)nc(F)c2-c2cccnc21` (centres unmarked) [#92, 2-[3-fluoro-5-methyl-9-oxo-10-(trideuteriomethyl)-4,8,12-triazatricyclo[9.4.0.0^2,7]pentadeca-1(15),2(7),3,5,11,13-hexaen-8-yl]-N-[4-(trifluoromethyl)phenyl]acetamide], the IC50 on system Xc^− [1] is under 15.8 nM; on system Xc^− [2], 39.8 to 100 nM.

For `COc1cc2c(c(OC)n1)-c1cccnc1CC(=O)N2CC(=O)Nc1ccc(C(F)(F)F)cc1` [#108, 2-(3,5-dimethoxy-9-oxo-4,8,12-triazatricyclo[9.4.0.0^2,7]pentadeca-1(11),2,4,6,12,14-hexaen-8-yl)-N-[4-(trifluoromethyl)phenyl]acetamide], the figures for the IC50 at system Xc^− [1] and on system Xc^− [2] were under 15.8 nM and 39.8 to 100 nM, respectively.

As for `COc1nc(C)cc2c1-c1cccnc1C(C)C(=O)N2CC(=O)Nc1ccc(C(F)(F)F)cc1` (centres unmarked) [#81, 2-(3-methoxy-5,10-dimethyl-9-oxo-4,8,12-triazatricyclo[9.4.0.0^2,7]pentadeca-1(11),2,4,6, 12,14-hexaen-8-yl)-N-[4-(trifluoromethyl)-phenyl]acetamide], the IC50 was under 15.8 nM at system Xc^− [1] and 15.8 to 39.8 nM at system Xc^− [2].
